The values that follow are results of earlier work, collected in paper PMC13112601 (International journal of biological macromolecules, 2026).

In general, EC50 refers to the concentration that produces a half-maximal response.

One series concerns the target T1, ERRα (Homo sapiens, UniProt P11474).
T1 construct: Full-length ERRα (A) and ERRγ (B) transfection assay results in HEK293 cells; host or cells: HEK293
T1 sequence (P11474 1-423): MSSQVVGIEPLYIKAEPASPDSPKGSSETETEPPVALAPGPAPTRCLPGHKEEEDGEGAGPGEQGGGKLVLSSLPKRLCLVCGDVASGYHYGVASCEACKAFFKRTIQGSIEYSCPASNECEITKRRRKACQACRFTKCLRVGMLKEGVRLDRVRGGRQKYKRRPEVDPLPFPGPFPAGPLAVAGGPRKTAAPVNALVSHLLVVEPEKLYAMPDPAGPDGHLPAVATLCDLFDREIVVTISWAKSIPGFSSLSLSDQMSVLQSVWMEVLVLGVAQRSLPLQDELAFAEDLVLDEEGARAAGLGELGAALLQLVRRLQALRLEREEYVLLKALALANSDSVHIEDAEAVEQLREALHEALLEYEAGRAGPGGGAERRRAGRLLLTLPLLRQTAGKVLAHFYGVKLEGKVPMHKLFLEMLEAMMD
As to conditions: previously reported.

For the next series, the target named is T2, ERRγ (Homo sapiens, UniProt P62508).
T2 construct: Full-length ERRα (A) and ERRγ (B) transfection assay results in HEK293 cells; host or cells: HEK293
T2 sequence (P62508 1-458): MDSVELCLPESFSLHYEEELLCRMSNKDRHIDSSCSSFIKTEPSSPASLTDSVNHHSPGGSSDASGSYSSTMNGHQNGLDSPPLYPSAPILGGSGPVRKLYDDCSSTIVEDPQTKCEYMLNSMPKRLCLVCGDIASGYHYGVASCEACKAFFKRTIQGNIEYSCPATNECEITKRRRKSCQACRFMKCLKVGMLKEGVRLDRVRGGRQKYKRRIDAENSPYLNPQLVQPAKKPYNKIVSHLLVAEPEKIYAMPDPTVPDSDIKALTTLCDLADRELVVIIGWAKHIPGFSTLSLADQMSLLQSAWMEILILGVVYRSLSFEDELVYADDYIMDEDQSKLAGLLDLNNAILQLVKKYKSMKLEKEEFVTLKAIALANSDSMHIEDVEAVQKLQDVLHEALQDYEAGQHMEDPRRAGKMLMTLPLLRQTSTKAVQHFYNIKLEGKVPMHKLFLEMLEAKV
As to conditions: previously reported.

Structures are written as SMILES.

`Cc1ccc(C(=O)N/N=C/c2ccccc2)cc1` [BE5082, (E)-N′-Benzylidene-4-methylbenzohydrazide]: the EC50 at ERRα was 0.209 µM; at ERRγ, 0.194 µM.
